Laboratory results taken from patent US7268152B2, “Glucocorticoid mimetics, methods of making them, pharmaceutical compositions, and uses thereof” (Boehringer Ingelheim Pharmaceuticals, Inc., priority 2002, dated 2007).

Molecular target: T1, human glucocorticoid receptor (GR) complex (Homo sapiens, UniProt P04150)
T1 construct: made in house; host or cells: insect expression system (baculovirus lysate)
T1 sequence (P04150 1-777): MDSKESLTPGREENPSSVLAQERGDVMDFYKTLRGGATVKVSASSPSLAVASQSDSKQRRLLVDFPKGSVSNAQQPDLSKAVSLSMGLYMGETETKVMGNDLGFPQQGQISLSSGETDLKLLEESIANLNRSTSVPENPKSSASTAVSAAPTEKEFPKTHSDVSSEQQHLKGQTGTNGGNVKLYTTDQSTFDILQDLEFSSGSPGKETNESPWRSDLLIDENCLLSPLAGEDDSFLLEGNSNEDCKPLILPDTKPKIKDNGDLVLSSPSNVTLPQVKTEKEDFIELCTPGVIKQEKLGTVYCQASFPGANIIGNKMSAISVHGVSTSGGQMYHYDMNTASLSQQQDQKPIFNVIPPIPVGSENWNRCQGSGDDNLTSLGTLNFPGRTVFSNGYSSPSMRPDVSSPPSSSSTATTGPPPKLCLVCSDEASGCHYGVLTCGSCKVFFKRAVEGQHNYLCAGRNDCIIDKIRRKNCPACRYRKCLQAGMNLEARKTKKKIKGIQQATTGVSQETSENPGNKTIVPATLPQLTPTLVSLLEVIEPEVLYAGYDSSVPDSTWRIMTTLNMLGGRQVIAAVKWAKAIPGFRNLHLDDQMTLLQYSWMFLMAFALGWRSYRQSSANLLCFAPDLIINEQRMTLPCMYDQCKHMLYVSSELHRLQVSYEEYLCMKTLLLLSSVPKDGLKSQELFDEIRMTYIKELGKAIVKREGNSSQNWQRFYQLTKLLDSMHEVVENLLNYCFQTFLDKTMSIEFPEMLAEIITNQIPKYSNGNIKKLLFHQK
Assay: Glucocorticoid receptor competitive binding assay (fluorescence polarization)
Conditions: competition with TAMRA-labeled dexamethasone
Experimental: Compounds of the invention were evaluated for binding to the steroid receptor by a fluorescence polarization competitive binding assay. Detailed descriptions for preparation of recombinant glucocorticoid receptor (GR) complex used in the assay is described in U.S. provisional application No. 60/291,877, filed May 18, 2001, and incorporated herein by reference in its entirety. Preparation of the tetramethyl rhodamine (TAMRA)-labeled dexamethasone probe was accomplished using a standard literature procedure (M. Pons et al., J. Steroid Biochem., 1985, 22, pp. 267-273).
A. Glucocorticoid Receptor Competitive Binding Assay
Step 1. Characterization of the Fluorescent Probe
The wavelengths for maximum excitation and emission of the fluorescent probe should first be measured. An example of such a probe is rhodamine (TAMRA)-labeled dexamethasone.
The affinity of the probe for the steroid receptor was then determined in a titration experiment. The fluorescence polarization value of the probe in assay buffer was measured on an SLM-8100 fluorometer using the excitation and emission maximum values described above. Aliquots of expression vector lysate were added and fluorescence polarization was measured after each addition until no further change in polarization value was observed. Non-linear least squares regression analysis was used to calculate the dissociation constant of the probe from the polarization values obtained for lysate binding to the probe.
Step 2. Screeningfor Inhibitors of Probe Binding
This assay uses fluorescence polarization (FP) to quantitate the ability of test compounds to compete with tetramethyl rhodamine (TAMRA)-labeled dexamethasone for binding to a human glucocorticoid receptor (GR) complex prepared from an insect expression system. The assay buffer was: 10 mM TES, 50 mM KCl, 20 mM Na2MoO4.2H2O, 1.5 mM EDTA, 0.04% w/v CHAPS, 10% v/v glycerol, 1 mM dithiothreitol, pH 7.4. Test compounds were dissolved to 1 mM in neat DMSO and then further diluted to 10×assay concentration in assay buffer supplemented with 10% v/v DMSO. Test compounds were serially diluted at 10×assay concentrations in 10% DMSO-containing buffer in 96-well polypropylene plates. Binding reaction mixtures were prepared in 96-well black Dynex microtiter plates by sequential addition of the following assay components to each well: […] of 10×test compound solution, 85 μL of GR-containing baculovirus lysate diluted 1:170 in assay buffer, and 50 μL of 15 nM TAMRA-labeled dexamethasone. Positive controls were reaction mixtures containing no test compound; negative controls (blanks) were reaction mixtures containing 0.7 μM to 2 μM dexamethasone. The binding reactions were incubated for 1 hour at room temperature and then read for fluorescence polarization in the LJL Analyst set to 550 nm excitation and 580 nm emission, with the Rhodamine 561 dichroic mirror installed. IC50 values were determined by iterative non-linear curve fitting of the FP signal data to a 4-parameter logistic equation.

SMILES	IC50
COc1ccc(F)cc1C(C)(C)CC(O)(Cc1cc(Cl)cc(C#N)c1)C(F)(F)F (stereo not drawn) [3-Chloro-5-[4-(5-fluoro-2-methoxyphenyl)-2-hydroxy-4-methyl-2-trifluoromethylpentyl]benzonitrile]	≤ 0.1 µM
COc1ccc(F)cc1C(C)(C)CC(O)(Cc1ccc(C=O)cc1)C(F)(F)F (stereo not drawn)	≤ 0.1 µM
COc1ccc(F)cc1C(C)(C)CC(O)(Cc1cc(Cl)ccc1Cl)C(F)(F)F (stereo not drawn) [2-(2,5-Dichlorobenzyl)-1,1,1-trifluoro-4-(5-fluoro-2-methoxyphenyl)-4-methylpentan-2-ol]	≤ 0.1 µM
Cc1ccc(F)cc1C(C)(C)CC(O)(Cc1ccc(Cl)c(Cl)c1)C(F)(F)F (stereo not drawn) [2-(3,4-Dichlorobenzyl)-1,1,1-trifluoro-4-(5-fluoro-2-methylphenyl)-4-methylpentan-2-ol]	≤ 0.1 µM
COc1ccc(F)cc1C(C)(C)CC(O)(Cc1cccc(Cl)c1Cl)C(F)(F)F (stereo not drawn) [2-(2,3-Dichlorobenzyl)-1,1,1-trifluoro-4-(5-fluoro-2-methoxyphenyl)-4-methylpentan-2-ol]	≤ 0.1 µM
COc1ccc(F)cc1C(C)(C)CC(O)(Cc1ccc(C#N)cc1F)C(F)(F)F (stereo not drawn) [3-Fluoro-4-[4-(5-fluoro-2-methoxyphenyl)-2-hydroxy-4-methyl-2-trifluoromethylpentyl]benzonitrile]	≤ 0.1 µM
CC(C)(CC(O)(Cc1ccc(Cl)cc1)C(F)(F)F)c1cc(F)ccc1O (stereo not drawn) [2-[3-(4-Chlorobenzyl)-4,4,4-trifluoro-3-hydroxy-1,1-dimethylbutyl]-4-fluorophenol]	≤ 0.1 µM
CC(C)(CC(O)(Cc1ccc(Cl)c(Cl)c1)C(F)(F)F)c1cc(F)ccc1O (stereo not drawn) [2-[3-(3,4-Dichlorobenzyl)-4,4,4-trifluoro-3-hydroxy-1,1-dimethylbutyl]-4-fluorophenol]	≤ 0.1 µM
COc1ccc(F)cc1C(C)(C)CC(O)(Cc1cc(C(F)(F)F)cc(C(F)(F)F)c1)C(F)(F)F (stereo not drawn) [2-(3,5-Bis-trifluoromethylbenzyl)-1,1,1-trifluoro-4-(5-fluoro-2-methoxyphenyl)-4-methylpentan-2-ol]	≤ 0.1 µM
COc1ccc(F)cc1C(C)(C)CC(O)(Cc1ccc(C)c2ccccc12)C(F)(F)F (stereo not drawn) [1,1,1-Trifluoro-4-(5-fluoro-2-methoxyphenyl)-4-methyl-2-(4-methylnaphthalen-1-ylmethyl)pentan-2-ol]	≤ 0.1 µM
CC(C)(CC(O)(Cc1ccc(Cl)c(Cl)c1)C(F)(F)F)c1ccccc1 (stereo not drawn) [2-(3,4-Dichlorobenzyl)-1,1,1-trifluoro-4-methyl-4-phenylpentan-2-ol]	≤ 0.1 µM
COc1ccccc1C(C)(C)CC(O)(Cc1cc(C)cc(C)c1)C(F)(F)F (stereo not drawn) [2-(3,5-Dimethylbenzyl)-1,1,1-tri fluoro-4-(2-methoxyphenyl)-4-methylpentan-2-ol]	≤ 0.1 µM
CC(C)(CC(O)(Cc1ccc(C#N)cc1Cl)C(F)(F)F)c1ccc(O)cc1 (stereo not drawn) [3-Chloro-4-[2-hydroxy-4-(4-hydroxyphenyl)-4-methyl-2-trifluoromethylpentyl]benzonitrile]	≤ 0.1 µM
CC(C)(CC(O)(Cc1ccccc1)C(F)(F)F)c1ccccc1 (stereo not drawn) [2-Benzyl-1,1,1-trifluoro-4-methyl-4-phenylpentan-2-ol]	≤ 0.1 µM
COc1ccc(F)cc1C(C)(C)CC(O)(C(=O)Cc1cc(C)cc(C)c1)C(F)(F)F (stereo not drawn) [1-(3,5-Dimethylphenyl)-5-(5-fluoro-2-methoxyphenyl)-3-hydroxy-5-methyl-3-trifluoromethylhexan-2-one]	≤ 0.1 µM
CC(C)(CC(O)(Cc1ccc(C#N)cc1)C(F)(F)F)c1cc(F)ccc1O (stereo not drawn) [4-[4-(5-Fluoro-2-hydroxyphenyl)-2-hydroxy-4-methyl-2-trifluoromethylpentyl]benzonitrile]	≤ 0.1 µM
COc1ccc(F)cc1C(C)(C)CC(O)(Cc1ccccc1Cl)C(F)(F)F (stereo not drawn) [2-(2-Chlorobenzyl)-1,1,1-trifluoro-4-(5-fluoro-2-methoxyphenyl)-4-methylpentan-2-ol]	≤ 0.1 µM
Cc1ccccc1CC(O)(CC(C)(C)c1cc(F)ccc1O)C(F)(F)F (stereo not drawn) [4-Fluoro-2-[4,4,4-trifluoro-3-hydroxy-1,1-dimethyl-3-(2-methylbenzyl)butyl]phenol]	≤ 0.1 µM
CC(C)(CC(O)(Cc1cc(Cl)cc(Cl)c1)C(F)(F)F)c1cc(F)ccc1O (stereo not drawn) [2-[3-(3,5-Dichlorobenzyl)-4,4,4-trifluoro-3-hydroxy-1,1-dimethylbutyl]4-fluorophenol]	≤ 0.1 µM
COc1ccc(F)cc1C(C)(C)CC(O)(Cc1cccc(C#N)c1)C(F)(F)F (stereo not drawn) [3-[4-(5-Fluoro-2-methoxyphenyl)-2-hydroxy-4-methyl-2-trifluoromethylpentyl]benzonitrile]	≤ 0.1 µM

Other lines, results leading:

IC50	SMILES
≤ 0.1 µM	COc1ccc(F)cc1C(C)(C)CC(O)(Cc1cc(C(F)(F)F)ccc1F)C(F)(F)F (stereo not drawn) [1,1,1-Trifluoro-4-(5-fluoro-2-methoxyphenyl)-2-(2-fluoro-5-trifluoromethylbenzyl)-4-methylpentan-2-ol]
≤ 0.1 µM	CC(C)(CC(O)(Cc1cc(C(F)(F)F)cc(Cl)c1F)C(F)(F)F)c1ccc(Cl)c(Cl)c1 (stereo not drawn) [2-(3-Chloro-2-fluoro-5-trifluoromethylbenzyl)-4-(3,4-dichlorophenyl)-1,1,1-trifluoro-4-methylpentan-2-ol]
≤ 0.1 µM	CC(C)(CC(O)(Cc1cc(C(F)(F)F)cc(Cl)c1F)C(F)(F)F)c1cccc(Cl)c1 (stereo not drawn) [2-(3-Chloro-2-fluoro-5-trifluoromethylbenzyl)-4-(3-chlorophenyl)-1,1,1-trifluoro-4-methylpentan-2-ol]
≤ 0.1 µM	CCOc1ccc(F)cc1C(C)(C)CC(O)(Cc1cc(C(F)(F)F)cc(Cl)c1F)C(F)(F)F (stereo not drawn) [2-(3-Chloro-2-fluoro-5-trifluoromethylbenzyl)-4-(2-ethoxy-5-fluorophenyl)-1,1,1-trifluoro-4-methylpentan-2-ol]
≤ 0.1 µM	CC(C)(CC(O)(Cc1cc(C(F)(F)F)cc(Cl)c1F)C(F)(F)F)c1cccc2c1OCC2 (stereo not drawn) [2-(3-Chloro-2-fluoro-5-trifluoromethylbenzyl)-4-(2,3-dihydrobenzofuran-7-yl)-1,1,1-trifluoro-4-methylpentan-2-ol]
≤ 0.1 µM	Cc1ccc(F)cc1C(C)(C)CC(O)(Cc1cc(C(F)(F)F)cc(Cl)c1F)C(F)(F)F (stereo not drawn) [2-(3-Chloro-2-fluoro-5-trifluoromethylbenzyl)-1,1,1-trifluoro-4-(5-fluoro-2-methylphenyl)-4-methylpentan-2-ol]
≤ 0.1 µM	CC(C)(CC(O)(Cc1cc(F)cc(C(F)(F)F)c1)C(F)(F)F)c1cc(F)ccc1O (stereo not drawn) [4-Fluoro-2-[4,4,4-trifluoro-3-(3-fluoro-5-trifluoromethylbenzyl)-3-hydroxy-1,1-dimethylbutyl]phenol]
≤ 0.1 µM	CC(C)(CC(O)(Cc1cc(C(F)(F)F)cc(Cl)c1F)C(F)(F)F)c1ccccc1 (stereo not drawn) [2-(3-Chloro-2-fluoro-5-trifluoromethylbenzyl)-1,1,1-trifluoro-4-methyl-4-phenylpentan-2-ol]
≤ 0.1 µM	COc1ccc(F)cc1C(C)(C)CC(O)(Cc1cc(F)cc(C(F)(F)F)c1)C(F)(F)F (stereo not drawn) [1,1,1-Trifluoro-4-(5-fluoro-2-methoxyphenyl)-2-(3-fluoro-5-trifluoromethylbenzyl)-4-methylpentan-2-ol]
≤ 0.1 µM	CC(C)(CC(O)(Cc1cc(C(F)(F)F)cc(Cl)c1F)C(F)(F)F)c1cc(C#N)cc2c1OCC2 (stereo not drawn) [7-[3-(3-Chloro-2-fluoro-5-trifluoromethylbenzyl)-4,4,4-trifluoro-3-hydroxy-1,1-dimethylbutyl]-2,3-dihydrobenzofuran-5-carbonitrile]
